Results published in patent US20240252456A1, “ORAL COMPOSITION, SKIN COSMETIC AND HAIR COSMETIC” (MARUZEN PHARMACEUTICALS CO., LTD., priority 2021, published 2024).

What was measured:
[1] = tested on: CLDN1 mRNA; experiment: Claudin-1 (CLDN1) mRNA expression promotive action test; format: cell-based, human; settings: NHEK, 24 hours, corrected with GAPDH
Description: Normal human neonatal epidermal keratinocytes (NHEK) were precultured using normal human epidermal keratinocyte growth medium (KGM), and the cells were collected by a trypsin treatment. The collected cells were diluted with KGM to a cell density of 15×10^4 cells/mL, then seeded with 2 mL portions in a 6-well plate (30×10^4 cells/well), and cultured overnight under conditions of 37° C. and 5% CO2. After culturing, the medium was replaced with normal human epidermal keratinocyte basal medium (KBM, the above KGM without addition of growth additives (hEGF, BPE, insulin, antibacterial agents, hydrocortisone)), and culturing was further performed for 24 hours.
After culturing for 24 hours, the medium was removed, and 2 mL of each of test samples (Samples 1 and 3, see Table 19 below for final concentrations) dissolved in KBM was added to each well, and culturing was performed under conditions of 37° C. and 5% CO2 for 24 hours. As a control, culturing was performed in the same manner using KBM to which no sample was added. After culturing, the medium was removed, total RNA was extracted using ISOGEN II (available from NIPPON GENE CO., LTD.), each RNA amount was measured using a spectrophotometer, and the total RNA was prepared so as to be 150 ng/μL.
For CLDN1 and GAPDH as an internal standard, the expression levels of mRNA were measured using the above total RNA as a template. Detection was performed through a two-step real-time RT-PCR reaction using a real-time PCR device, Thermal Cycler Dice Real Time System III (available from Takara Bio Inc.), with PrimeScript™ RT Master Mix (Perfect Real Time) (available from Takara Bio Inc.) and TB Green® Fast qPCR Mix (available from Takara Bio Inc.). Primers available from Takara Bio Inc. were used. The expression level of CLDN1 mRNA was obtained as a value corrected with a value of GAPDH based on total RNA preparations prepared from cells cultured “with test sample addition” and “without sample addition.” From the obtained values, the CLDN1 mRNA expression promotion rate (%) was calculated using the following equation. […]

[2] = tested on: Normal human dermal fibroblasts (NB1RGB); experiment: Hyaluronic acid production promotive action test; format: cell-based; settings: 3 days, A/B×100 vs no sample
Description: Normal human dermal fibroblasts (NB1RGB) were cultured using Dulbecco's modified Eagle's medium (DMEM) containing 10% FBS, and then the cells were collected by a trypsin treatment. The collected cells were diluted with DMEM containing 0.25% FBS to a cell density of 1.6×10^5 cells/mL, then seeded with 100 μL per well in a 96-well plate, and cultured overnight.
After the culturing was completed, 100 μL of each of test samples (Samples 1 and 2, see Table 9 below for final concentrations) dissolved in DMEM containing 0.25% FBS was added to each well, and culturing was performed for 3 days. As a control, culturing was performed in the same manner using DMEM containing 0.25% FBS to which no sample was added. After the culturing was completed, the amount of hyaluronic acid in the medium of each well was measured by a sandwich method using hyaluronic acid binding protein (HABP). From the obtained results, the hyaluronic acid production promotion rate (%) was calculated using the following equation.
Hyaluronic acid production promotion rate (%)=A/B×100
Terms in the equation represent the following respective ones. • A: Hyaluronic acid amount with test sample addition • B: Hyaluronic acid amount without sample addition

[3] = tested on: Normal human neonatal epidermal keratinocytes (NHEK); experiment: ATP production promotive action test (epidermal keratinocytes); format: cell-based; settings: 2 hours
Description: Normal human neonatal epidermal keratinocytes (NHEK) were cultured using normal human epidermal keratinocyte growth medium (KGM), and then the cells were collected by a trypsin treatment. The collected cells were diluted with KGM to a cell density of 2.0×10^5 cells/mL, then seeded with 100 μL per well on a collagen-coated 96-well plate, and cultured overnight. After the culturing was completed, the medium was removed, and 100 μL of KGM to which each of test samples (Samples 1 and 2, see Table 13 below for final concentrations) was added was added to each well, and culturing was performed for 2 hours. As a control, culturing was performed in the same manner using KGM to which no sample was added.
The ATP production promotive action was determined by measuring the amount of ATP in cells using the firefly luciferase luminescence method. […] After the reaction, the amount of chemiluminescence proportional to the amount of intracellular ATP was measured using a chemiluminescence measurement device (available from Thermo Fisher Scientific, product name: Varioskan LUX multimode microplate reader). From the obtained results, the ATP production promotion rate (%) was calculated using the following equation. […]

[4] = tested on: AGEs; experiment: Advanced glycation end product (AGEs) formation suppressive action test; settings: type I collagen-coated plate, 0.2M D(−)-ribose, 37° C., 20 days
Description: In a 96-well type I collagen-coated plate (available from AGC Inc.), 100 μL of a mixed solution of 0.2M D(−)-ribose prepared with PBS(−) buffer solution and each of test samples (Samples 1 and 2, see Table 22 below for final concentrations) were added and statically placed at 37° C. for 20 days to form AGEs. In addition, PBS(−) buffer solution only as a negative control and a 0.2M D(−)-ribose solution prepared with PBS(−) buffer solution as a positive control were statically placed in the same manner. After 20 days, the amount of AGEs was measured by the ELISA method using an anti-AGEs antibody (available from TPANS GENIC INC.), and the AGEs formation suppressive action was evaluated. From the obtained results, the AGEs formation suppression rate (%) was calculated using the following equation.
Terms in the equation represent the following respective ones. • A: Absorbance at wavelength 405 nm in negative control • B: Absorbance at wavelength 405 nm in positive control • C: Absorbance at wavelength 405 nm with test sample addition

| SMILES | CLDN1 mRNA expression promotion rate ([1]; 25 μmol/L) | Hyaluronic acid production promotion rate ([2]; 50 μmol/L) | Hyaluronic acid production promotion rate ([2]; 100 μmol/L) | Hyaluronic acid production promotion rate ([2]; 200 μmol/L) | ATP production promotion rate ([3]; 25 μmol/L) | AGEs formation suppression rate ([4]; 2000 μmol/L) | Hyaluronic acid production promotion rate ([2]; 25 μmol/L) | ATP production promotion rate ([3]; 6.25 μmol/L) | CLDN1 mRNA expression promotion rate ([1]; 100 μmol/L) | AGEs formation suppression rate ([4]; 125 μmol/L) | AGEs formation suppression rate ([4]; 500 μmol/L) |
| --- | --- | --- | --- | --- | --- | --- | --- | --- | --- | --- | --- |
| O=C(O)CCc1ccccc1 [Sample 3, 3-phenylpropionic acid] | 125.5% |  |  |  |  |  |  |  |  |  |  |
| O=C(O)CCc1ccc(O)cc1 [Sample 2, 3-(4-Hydroxyphenyl)propionic acid] |  | 121.8% | 119.3% | 111.7% | 112.4% | 13.3% |  |  |  |  |  |
| O=C(O)CCc1ccc(O)c(O)c1 [Sample 1, 3,4-Dihydroxyhydrocinnamic acid] | 256.6% |  |  |  |  | 78.4% | 124.2% | 106.7% | 568.6% | 45.7% | 69.4% |
